Laboratory results published in PMC8284453 (Antimicrobial Agents and Chemotherapy, 2021).
Read-outs that look alike come from different tables or passages of the source.

Assays:
[1] = test system: strains of Enterobacterales expressing serine β-lactamases; experiment: organism not typed; type: cell-based
[2] = target: T1, OXA-48 (Klebsiella pneumoniae, UniProt Q6XEC0); experiment: biochemical
T1 construct: made in house; host or cells: E. coli BL21(DE3), plasmid pET-OXA-48 (pET9a)

[3] = target: KPC-2 (Klebsiella pneumoniae, UniProt Q9F663); experiment: IC50 determination against purified β-lactamase; type: biochemical; set-up: made in house; host or cells: E. coli BL21(DE3), plasmid pET-KPC-2 (pET9a); settings: substrate imipenem; mean from duplicate measurements
Protocol: (§1) An equal volume of enzyme was added (assay concentrations, 0.6 nM P99AmpC, 21 nM CTX-M-15, 3 nM KPC-2, 100 nM SHV-5), and the mixtures were preincubated for 15 min at 37°C. For AmpC, nitrocefin was then added to obtain a final concentration of 100 μM, and the absorbance at a wavelength (λ) of 486 nm (representing hydrolysis of the nitrocefin β-lactam ring) was monitored immediately using a BioTek Powerwave XS2 microplate reader. In similar fashion, using UV-transparent 96-well microtiter plates, hydrolysis of imipenem (100 μM) by KPC-2 was monitored at λ 300 nm, while cefotaxime (100 μM) hydrolysis by CTX-M-15 and SHV-5 was monitored at λ 300 nm. Assays were performed in duplicate, and the percentage inhibition relative to reaction mixtures containing no inhibitor were determined for each concentration of inhibitor.

[4] = target: T2, CMY-2 (Klebsiella pneumoniae, UniProt Q48434); experiment: IC50 determination against purified β-lactamase; type: biochemical; settings: substrate nitrocefin; mean from duplicate measurements; read-out: IC50
T2 construct: made in house; host or cells: E. coli BL21(DE3), pET9a

[5] = test system: K. pneumoniae ATCC BAA-1705 (KPC-2); experiment: Broth microdilution MIC; type: cell-based; settings: Klebsiella pneumoniae, ATCCBAA1705
[6] = test system: K. pneumoniae 752286 (OXA-48); experiment: 24-h time-kill assay; type: cell-based; settings: Klebsiella pneumoniae; lowest concentration with ≥3-log10 CFU/ml reduction at 24 h; read-out: MBC
Protocol: (§2) In vitro antibacterial time-kill assay. […] Time-kill assays were performed in 14 ml glass tubes or deep-well storage plates with a bacterial inoculum in CAMHB of 5 × 10^5 CFU/ml. The tubes/plates were incubated at 37°C with shaking at 200 rpm, and aliquots were drawn at six time points (0, 2, 4, 6, 8, and 24 h) to conduct 0.5 log10 dilutions in CAMHB in 96-well plates that were incubated overnight at 37°C and used to ascertain viable bacterial counts. The lowest quantifiable amount by this method is 2 log10 CFU/ml.

[7] = test system: K. pneumoniae ATCC BAA-1705 (KPC-2); experiment: 24-h time-kill assay; type: cell-based; settings: Klebsiella pneumoniae, ATCCBAA1705; lowest concentration with ≥3-log10 CFU/ml reduction at 24 h; read-out: MBC
Protocol: as §2

[8] = test system: E. coli ESBL4 (CTX-M-15); experiment: 24-h time-kill assay; type: cell-based; settings: Escherichia coli; lowest concentration with ≥3-log10 CFU/ml reduction at 24 h; read-out: MBC
Protocol: as §2

[9] = test system: E. cloacae ECL01 (TEM-72, ACT-1, P99AmpC); experiment: 24-h time-kill assay; type: cell-based
Protocol: as §2

[10] = test system: E. cloacae ECL01 (TEM-72, ACT-1, P99AmpC); experiment: Broth microdilution MIC; type: cell-based; settings: Enterobacter cloacae
[11] = test system: E. coli ESBL4 (CTX-M-15); experiment: Broth microdilution MIC; type: cell-based; settings: Escherichia coli
[12] = test system: K. pneumoniae 752286 (OXA-48); experiment: Broth microdilution MIC; type: cell-based; settings: Klebsiella pneumoniae
[13] = test system: isogenic strains of E. coli expressing Ambler class A, B, C, and D enzymes; experiment: microbe, parasite or virus in culture; type: cell-based, Escherichia coli; settings: Escherichia coli
[14] = target: CTX-M-15 (Escherichia coli, UniProt Q9EXV5); experiment: IC50 determination against purified β-lactamase; type: biochemical; set-up: made in house; host or cells: E. coli BL21(DE3), plasmid pET-CTX-M-15 (pET9a); settings: substrate cefotaxime; mean from duplicate measurements; read-out: IC50
Protocol: as §1

[15] = target: T3, OXA-1 (Escherichia coli, UniProt P13661); experiment: IC50 determination against purified β-lactamase; type: biochemical; settings: substrate nitrocefin; mean from duplicate measurements
T3 construct: made in house; host or cells: E. coli BL21(DE3), pET9a

[16] = test system: Enterobacterales expressing class A carbapenemases (KPC); experiment: organism not typed; type: cell-based, K. pneumoniae, E. coli, E. cloacae, Klebsiella oxytoca
[17] = test system: Enterobacterales expressing class C cephalosporinases
[18] = test system: Enterobacterales expressing class D oxacillinases (OXA-48/48-like); experiment: organism not typed; type: cell-based, E. coli, K. pneumoniae
[19] = 25 isolates, BLI fixed at 4 μg/ml, AMC 2:1

C=CC1=C(C(=O)O)N2C(=O)[C@@H](NC(=O)/C(=N\OCC(=O)O)c3csc(N)n3)[C@H]2SC1 [Cefixime, cefixime]
0.5 µg/mL: MIC50 [1]
2 µg/mL: MIC90 [1]

C[C@]1(Cn2ccnn2)[C@H](C(=O)O)N2C(=O)C[C@H]2S1(=O)=O [Tazobactam, tazobactam]
3.5 µM: IC50 [2]
1.7 µM: IC50 [3]
0.41 µM: IC50 [4]

C[C@H]1COc2c(N3CCN(C)CC3)c(F)cc3c(=O)c(C(=O)O)cn1c23 [Levofloxacin, levofloxacin]
32 µg/mL: MBC [8] | MIC [11] | MIC [12]
> 32 µg/mL: MBC [6]
≥ 64 µg/mL: MBC [7]
0.12 µg/mL: MBC ([9]; Enterobacter cloacae, lowest concentration with ≥3-log10 CFU/ml reduction at 24 h, read-out: MBC) | MIC [10]
64 µg/mL: MIC [5]
bactericidal activity: outcome of 24-h time-kill assay ([9]; Fig. 3b)

O=C(O)[C@H]1/C(=C/CO)O[C@@H]2CC(=O)N21 [Clavulanic acid, clavulanic acid]
1.8 µM: IC50 [3]
32 µg/mL: MIC ([13]; read-out: modal MIC)
0.12 µM: IC50 [15]
0.04 µM: IC50 [14]
14.3 µM: IC50 [2]

CO/N=C(\C(=O)N[C@@H]1C(=O)N2C(C(=O)O)=C(/C=C\c3scnc3C)CS[C@H]12)c1csc(N)n1 [Cefditoren, cefditoren]
2 µg/mL: MIC90 [1]
0.5 µg/mL: MIC50 [1]

CC1(C)S[C@@H]2[C@H](NC(=O)[C@H](N)c3ccc(O)cc3)C(=O)N2[C@H]1C(=O)O [AMX, amoxicillin]
≥ 64 µg/mL: MIC ([16]; E. cloacae 847429 (KPC)) | MIC ([16]; E. cloacae OIMGH49 (p99 AmpC, ACT-2, KPC-2, TEM-1)) | MIC ([16]; E. coli 786978 (KPC)) | MIC ([16]; K. pneumoniae 845661 (KPC)) | MIC ([16]; K. pneumoniae 845662 (KPC)) | MIC ([16]; K. pneumoniae 845665 (KPC)) | MIC ([16]; K. pneumoniae 845667 (KPC)) | MIC ([16]; K. pneumoniae 845670 (KPC)) | MIC ([16]; K. pneumoniae 845904 (KPC)) | MIC ([16]; K. pneumoniae 847204 (KPC)) | MIC ([16]; K. pneumoniae 847375 (KPC)) | MIC ([16]; K. pneumoniae 847387 (KPC))
8 µg/mL: MIC ([13]; read-out: Vector control MIC)
128 µg/mL: MIC ([17]; E. coli 128 (AmpC, SHV-12, TEM-1, Toho-2)) | MIC ([17]; E. coli EC469 (AmpC, SHV-12, TEM-1)) | MIC ([17]; E. coli J53 (AmpC, SHV-5, TEM-1))
32 µg/mL: MIC ([17]; E. coli 3102 (AmpC, CTX-M-15, TEM-1))
≥ 256 µg/mL: MIC50 [17, 19] | MIC90 [17, 19] | MIC ([17]; C. freundii 134390 (AmpC, TEM-1)) | MIC ([17]; E. aerogenes 110099 (AmpC, SHV-12)) | MIC ([17]; E. aerogenes 111707 (AmpC, TEM-1)) | MIC ([17]; E. aerogenes 111902 (AmpC, TEM-1)) | MIC ([17]; E. coli CH1 (AmpC, CTX-M-15, SHV-1, SHV-5, TEM-1)) | MIC ([17]; E. coli SI-P026TC (CMY-2, TEM-1)) | MIC ([17]; E. coli SI-PO26 (AmpC, CMY-2, TEM-1)) | MIC ([17]; K. pneumoniae 129032 (MOX-2, SHV-12, TEM-1)) | MIC ([17]; K. pneumoniae 178279 (AmpC, SHV-12, TEM-1)) | MIC ([17]; K. pneumoniae 212027 (AmpC, FOX-5, TEM-1)) | MIC ([17]; K. pneumoniae 217917 (CMY-2, TEM-1)) | MIC ([17]; K. pneumoniae 301313 (AmpC, SHV-12, TEM-1)) | MIC ([17]; K. pneumoniae 398845 (CMY-2, SHV-12, TEM-1)) | MIC ([17]; K. pneumoniae SI-F100 (CMY-2, SHV-5, TEM-1)) | MIC ([17]; P. mirabilis SI-F014 (AmpC, TEM-72)) | MIC ([17]; S. marcescens 132253 (AmpC, CTX-M-3, OXA-1, SHV-12, TEM-1)) | MIC ([17]; S. marcescens 134434 (AmpC, SHV-12, TEM-1)) | MIC ([17]; S. marcescens 142397 (AmpC, SHV-7, TEM-1)) | MIC ([17]; S. marcescens 156212 (AmpC, SHV-12, TEM-1)) | MIC ([17]; S. marcescens 192478 (AmpC, SHV-12, TEM-1)) | MIC ([17]; S. marcescens 218068 (AmpC, SHV-7, TEM-1)) | MIC50 [18, 19] | MIC90 [18, 19] | MIC range [18, 19] | MIC ([18]; E. coli 664507 (OXA-48)) | MIC ([18]; E. coli 664516 (OXA-48)) | MIC ([18]; E. coli 664520 (OXA-48)) | MIC ([18]; E. coli 664522 (OXA-48)) | MIC ([18]; E. coli 664523 (OXA-48)) | MIC ([18]; E. coli 664524 (OXA-48)) | MIC ([18]; E. coli 664525 (OXA-48)) | MIC ([18]; E. coli 664526 (OXA-48)) | MIC ([18]; E. coli 664528 (OXA-48)) | MIC ([18]; E. coli 787112 (OXA-48)) | MIC ([18]; E. coli SI-422 (OXA-48)) | MIC ([18]; E. coli VER (OXA-48)) | MIC ([18]; K. pneumoniae 6299 (OXA-163)) | MIC ([18]; K. pneumoniae 515746 (OXA-48), first line) | MIC ([18]; K. pneumoniae 515746 (OXA-48), second line) | MIC ([18]; K. pneumoniae 664438 (OXA-48)) | MIC ([18]; K. pneumoniae 664439 (OXA-48)) | MIC ([18]; K. pneumoniae 664509 (OXA-48)) | MIC ([18]; K. pneumoniae 664518 (OXA-48)) | MIC ([18]; K. pneumoniae 722870 (OXA-48)) | MIC ([18]; K. pneumoniae BAH (OXA-204)) | MIC ([18]; K. pneumoniae DEL (OXA-232)) | MIC ([18]; K. pneumoniae DOV (OXA-48)) | MIC ([18]; K. pneumoniae KIRK (OXA-162)) | MIC ([18]; K. pneumoniae SI-C17 (OXA-48))
